Reference: ChEMBL document CHEMBL1145652, “Plant anticancer agents. XXVI. Constituents of Peddiea fischeri” (1983)
Values after ≈ are worked out from the molar mass of the structure shown. Active and inactive are the calls of the source. No cut-off for these calls is given here.

How the values were obtained:
[1] = tested on: P388; experiment: Cytotoxicity against mouse P388 cells; type: functional; settings: read-out: ED50 (the source's name)
[2] = tested on: P388; experiment: In vivo antitumor activity against mouse P388 cells at 2.2 to 17.5 mg/kg; type: functional, organism-based
[3] = tested on: P388; experiment: In vivo antitumor activity against mouse P388 cells at 1.4 to 11.4 mg/kg; type: functional, organism-based

| SMILES | EC50 [1] | Activity [2] | Activity [3] |
| --- | --- | --- | --- |
| COC1=CC(=O)C=C(OC)C1=O [2,6-DIMETHOXYQUINONE] | 0.0015 mg/L (≈ 0.00892 µM) | – | – |
| COc1cc2cc(Oc3ccc4ccc(=O)oc4c3)c(=O)oc2cc1O [DAPHNORETIN] | 2.2 mg/L (≈ 6.24 µM) | inactive | inactive |
| O=c1ccc2ccc(O)cc2o1 [UMBELLIFERONE] | 0.4 mg/L (≈ 2.47 µM) | inactive | inactive |
